This data set is described as follows: TIMS collisional cross section (CCS, N2) of the lipid ion; higher = larger ion cross section. The following applies: ionization mode: positive, one isomer drawn.

Consider `CCCCC/C=C\C/C=C\CCCCCCCC(=O)OC[C@@H](COC(=O)CCCCCCCCCCCCCCC)OC(=O)CCCCCCC/C=C\CCCCCCCC` [TG 16:0_18:1_18:2] (ion (formula + adduct): [C55H100O6+NH4] 1+), for which the “TIMS collisional cross section” value is, setting by setting: (sample type: Liver) 314.1 Å²; (sample type: plasma) 319.7 Å².

For the compound `CCCCCCCC/C=C\CCCCCCCC(=O)O[C@@H](COC(=O)CCCCCCC/C=C\CCCCCCCCC)COC(=O)CCCCCCCCCCCCCCC` [TG 16:0_18:1_19:1] (ion (formula + adduct): [C56H104O6+NH4] 1+), the “TIMS collisional cross section” value (sample type: HeLa) is on record as 325.5 Å².

In the case of `CCCCCCCC/C=C\CCCCCCCC(=O)O[C@H](COC(=O)CCCCCCCCCCCCCCC)COC(=O)CCCCCCCCCCCCCCCCCCC` [TG 16:0_18:1_20:0] (ion (formula + adduct): [C57H108O6+NH4] 1+), under “sample type: Liver”, the “TIMS collisional cross section” value was determined as 330.6 Å².

Turning to `CCCCCCCC/C=C\CCCCCCCCCC(=O)OC[C@@H](COC(=O)CCCCCCCCCCCCCCC)OC(=O)CCCCCCC/C=C\CCCCCCCC` [TG 16:0_18:1_20:1] (ion (formula + adduct): [C57H106O6+NH4] 1+), the “TIMS collisional cross section” value (sample type: HeLa) was 328.4 Å².

With `CCCCC/C=C\C/C=C\C/C=C\C/C=C\CCCC(=O)OC[C@@H](COC(=O)CCCCCCCCCCCCCCC)OC(=O)CCCCCCC/C=C\CCCCCCCC` [TG 16:0_18:1_20:4] (ion (formula + adduct): [C57H100O6+NH4] 1+), the “TIMS collisional cross section” value by setting is: (sample type: HeLa) 324.5 Å²; (sample type: plasma) 324.2 Å².

For the compound `CCCCCCCC/C=C\CCCCCCCC(=O)O[C@H](COC(=O)CCCCCCCCCCCCCCC)COC(=O)CCCCCCCCCCCCCCCCCCCC` [TG 16:0_18:1_21:0] (ion (formula + adduct): [C58H110O6+NH4] 1+), the “TIMS collisional cross section” value is, setting by setting: (sample type: Liver) 333 Å²; (sample type: plasma) 333.1 Å².

For `CCCCCCCC/C=C\CCCCCCCC(=O)O[C@H](COC(=O)CCCCCCCCCCCCCCC)COC(=O)CCCCCCCCCCCCCCCCCCCCC` [TG 16:0_18:1_22:0] (ion (formula + adduct): [C59H112O6+NH4] 1+), the “TIMS collisional cross section” value is reported as 335.9 Å² (sample type: HeLa) and 336.3 Å² (sample type: Liver).

As to `CCCCCCCC/C=C\CCCCCCCCCCCC(=O)OC[C@@H](COC(=O)CCCCCCCCCCCCCCC)OC(=O)CCCCCCC/C=C\CCCCCCCC` [TG 16:0_18:1_22:1] (ion (formula + adduct): [C59H110O6+NH4] 1+), the “TIMS collisional cross section” value (sample type: Liver) was determined as 334.2 Å².

For the compound `CCCCC/C=C\C/C=C\C/C=C\C/C=C\CCCCCC(=O)OC[C@@H](COC(=O)CCCCCCCCCCCCCCC)OC(=O)CCCCCCC/C=C\CCCCCCCC` [TG 16:0_18:1_22:4] (ion (formula + adduct): [C59H104O6+NH4] 1+), the “TIMS collisional cross section” value (sample type: plasma) was found to be 329.9 Å².

`CC/C=C\C/C=C\C/C=C\C/C=C\C/C=C\CCCCCC(=O)OC[C@@H](COC(=O)CCCCCCCCCCCCCCC)OC(=O)CCCCCCC/C=C\CCCCCCCC` [TG 16:0_18:1_22:5] (ion (formula + adduct): [C59H102O6+NH4] 1+): where the note is “sample type: HeLa”, the “TIMS collisional cross section” value stood at 328.5 Å².

For the compound `CC/C=C\C/C=C\C/C=C\CCCCCCCC(=O)OC[C@@H](COC(=O)CCCCCCCCCCCCCCC)OC(=O)CCCCCCC/C=C\C/C=C\CCCCC` [TG 16:0_18:2_18:3] (ion (formula + adduct): [C55H96O6+NH4] 1+), the “TIMS collisional cross section” value (sample type: plasma) was 315.8 Å².

For `CCCCC/C=C\C/C=C\C/C=C\CCCCCCC(=O)OC[C@@H](COC(=O)CCCCCCCCCCCCCCC)OC(=O)CCCCCCC/C=C\C/C=C\CCCCC` [TG 16:0_18:2_20:3] (ion (formula + adduct): [C57H100O6+NH4] 1+), the “TIMS collisional cross section” value (sample type: Liver) turned out to be 322.3 Å².

In the case of `CCCCC/C=C\C/C=C\C/C=C\C/C=C\CCCC(=O)OC[C@@H](COC(=O)CCCCCCCCCCCCCCC)OC(=O)CCCCCCC/C=C\C/C=C\CCCCC` [TG 16:0_18:2_20:4] (ion (formula + adduct): [C57H98O6+NH4] 1+), for the setting “sample type: plasma”, the “TIMS collisional cross section” value turned out to be 321.2 Å².

Consider `CC/C=C\C/C=C\C/C=C\C/C=C\C/C=C\CCCC(=O)OC[C@@H](COC(=O)CCCCCCCCCCCCCCC)OC(=O)CCCCCCC/C=C\C/C=C\CCCCC` [TG 16:0_18:2_20:5] (ion (formula + adduct): [C57H96O6+NH4] 1+), for which the “TIMS collisional cross section” value (sample type: Liver) is given as 318.1 Å² and the “TIMS collisional cross section” value (sample type: plasma) stood at 319.9 Å².

For the compound `CCCCC/C=C\C/C=C\C/C=C\C/C=C\CCCCCC(=O)OC[C@@H](COC(=O)CCCCCCCCCCCCCCC)OC(=O)CCCCCCC/C=C\C/C=C\CCCCC` [TG 16:0_18:2_22:4] (ion (formula + adduct): [C59H102O6+NH4] 1+), the “TIMS collisional cross section” value is 328 Å² (sample type: Liver) and 327.9 Å² (sample type: plasma).

Turning to `CC/C=C\C/C=C\C/C=C\C/C=C\C/C=C\C/C=C\CCC(=O)OC[C@@H](COC(=O)CCCCCCCCCCCCCCC)OC(=O)CCCCCCC/C=C\C/C=C\CCCCC` [TG 16:0_18:2_22:6] (ion (formula + adduct): [C59H98O6+NH4] 1+), the “TIMS collisional cross section” value (sample type: Liver) is 325.3 Å².

As for `CC/C=C\C/C=C\C/C=C\C/C=C\C/C=C\C/C=C\CCC(=O)OC[C@@H](COC(=O)CCCCCCCCCCCCCCC)OC(=O)CCCC/C=C\C/C=C\C/C=C\C/C=C\CC` [TG 16:0_18:4_22:6] (ion (formula + adduct): [C59H94O6+NH4] 1+), the “TIMS collisional cross section” value (sample type: Liver) turned out to be 322.1 Å².

As to `CCCCCCCCCCCCCCCCCCCCCC(=O)OC[C@@H](COC(=O)CCCCCCCCCCCCCCC)OC(=O)CCCCCCCCCCCCCCCCCC` [TG 16:0_19:0_22:0] (ion (formula + adduct): [C60H116O6+NH4] 1+), the “TIMS collisional cross section” value is given as 341.2 Å² (sample type: HeLa), 340.8 Å² (sample type: Liver) and 340.7 Å² (sample type: plasma).

With `CC/C=C\C/C=C\C/C=C\C/C=C\C/C=C\CCCCCC(=O)OC[C@@H](COC(=O)CCCCCCCCCCCCCCC)OC(=O)CCCCCCC/C=C\CCCCCCCCC` [TG 16:0_19:1_22:5] (ion (formula + adduct): [C60H104O6+NH4] 1+), the “TIMS collisional cross section” value (sample type: HeLa) turned out to be 331.2 Å².

For the compound `CCCCC/C=C\C/C=C\C/C=C\C/C=C\CCCC(=O)OC[C@@H](COC(=O)CCCCCCCCCCCCCCC)OC(=O)CCCCCCCCCCCCCCCCCCC` [TG 16:0_20:0_20:4] (ion (formula + adduct): [C59H106O6+NH4] 1+), the “TIMS collisional cross section” value (sample type: Liver) amounted to 332.3 Å².

`CCCCCCCCCCCCCCCCCCCCC(=O)OC[C@@H](COC(=O)CCCCCCCCCCCCCCC)OC(=O)CCCCCCCCCCCCCCCCCCC` [TG 16:0_20:0_21:0] (ion (formula + adduct): [C60H116O6+NH4] 1+): the “TIMS collisional cross section” value (sample type: HeLa) is given as 339.7 Å².

In the case of `CCCCCCCCCCCCCCCCCCCCCC(=O)OC[C@@H](COC(=O)CCCCCCCCCCCCCCC)OC(=O)CCCCCCCCCCCCCCCCCCC` [TG 16:0_20:0_22:0] (ion (formula + adduct): [C61H118O6+NH4] 1+), the “TIMS collisional cross section” value runs as follows: (sample type: HeLa) 344.3 Å²; (sample type: plasma) 343.5 Å².

As to `CCCCC/C=C\C/C=C\C/C=C\CCCCCCCCC(=O)OC[C@@H](COC(=O)CCCCCCCCCCCCCCC)OC(=O)CCCCCCCCCCCCCCCCCCC` [TG 16:0_20:0_22:3] (ion (formula + adduct): [C61H112O6+Na] 1+), for the setting “sample type: plasma”, the “TIMS collisional cross section” value amounted to 333.9 Å².

On to `CC/C=C\C/C=C\C/C=C\C/C=C\C/C=C\C/C=C\CCC(=O)OC[C@@H](COC(=O)CCCCCCCCCCCCCCC)OC(=O)CCCCCCCCCCCCCCCCCCC` [TG 16:0_20:0_22:6] (ion (formula + adduct): [C61H106O6+NH4] 1+), for which the “TIMS collisional cross section” value (sample type: Liver) came to 335.3 Å².

Regarding `CC/C=C\C/C=C\C/C=C\C/C=C\C/C=C\C/C=C\CCC(=O)OC[C@@H](COC(=O)CCCCCCCCCCCCCCC)OC(=O)CCCCCC/C=C\C/C=C\C/C=C\CCCCC` [TG 16:0_20:3_22:6] (ion (formula + adduct): [C61H100O6+NH4] 1+), the “TIMS collisional cross section” value (sample type: HeLa) is reported as 329.4 Å² and the “TIMS collisional cross section” value (sample type: Liver) was 329.3 Å².

For `CCCCC/C=C\C/C=C\C/C=C\C/C=C\CCCC(=O)O[C@H](COC(=O)CCCCCCCCCCCCCCC)COC(=O)CCCCCCCCCCCCCCCCCCCCC` [TG 16:0_20:4_22:0] (ion (formula + adduct): [C61H110O6+NH4] 1+), under “sample type: Liver”, the “TIMS collisional cross section” value is on record as 338.2 Å².

As to `CCCCCCCCCCCCCCCCCCCCCC(=O)OC[C@@H](COC(=O)CCCCCCCCCCCCCCC)OC(=O)CCCCCCCCCCCCCCCCCCCC` [TG 16:0_21:0_22:0] (ion (formula + adduct): [C62H120O6+NH4] 1+), the “TIMS collisional cross section” value (sample type: HeLa) is 346.3 Å² and the “TIMS collisional cross section” value (sample type: plasma) is 346 Å².

`CCCCC/C=C\C/C=C\CCCCCCCCCCCC(=O)OC[C@@H](COC(=O)CCCCCCCCCCCCCCC)OC(=O)CCCCCCCCCCCCCCCCCCCC` [TG 16:0_21:0_22:2] (ion (formula + adduct): [C62H116O6+NH4] 1+): under “sample type: plasma”, the “TIMS collisional cross section” value came to 342.3 Å².

`CC/C=C\C/C=C\C/C=C\C/C=C\C/C=C\C/C=C\CCC(=O)OC[C@@H](COC(=O)CCCCCCCCCCCCCCC)OC(=O)CCCCCCCCCCCCCCCCCCCCC` [TG 16:0_22:0_22:6] (ion (formula + adduct): [C63H110O6+NH4] 1+): the “TIMS collisional cross section” value (sample type: Liver) was 340.7 Å².

For `CC/C=C\C/C=C\C/C=C\C/C=C\C/C=C\C/C=C\CCC(=O)OC[C@@H](COC(=O)CCCCCCCCCCCCCCC)OC(=O)CCCCC/C=C\C/C=C\C/C=C\C/C=C\C/C=C\CC` [TG 16:0_22:5_22:6] (ion (formula + adduct): [C63H100O6+NH4] 1+), the “TIMS collisional cross section” value (sample type: HeLa) turned out to be 332.8 Å².

`CC/C=C\C/C=C\C/C=C\C/C=C\C/C=C\C/C=C\CCC(=O)OC[C@@H](COC(=O)CCCCCCCCCCCCCCC)OC(=O)CC/C=C\C/C=C\C/C=C\C/C=C\C/C=C\C/C=C\CC` [TG 16:0_22:6_22:6] (ion (formula + adduct): [C63H98O6+NH4] 1+): the “TIMS collisional cross section” value (sample type: Liver) was determined as 331.6 Å².

These data come from the supplement of paper PMC6965134.
